Assay results as given in article PMC5218480 (PLoS ONE, 2017).

System: MV-4-11 cells
Assay: Gene expression microarray analysis (Affymetrix PrimeView) and GSEA
Assay type: cell-based, human
Parameters: RFU PODN (11730768_x_at) / Fold change /veh PODN (11730768_x_at) / RFU LINC00158 (11744669_a_at) / Fold change /veh LINC00158 (11744669_a_at) / RFU DUSP10 (11751237_a_at) / Fold change /veh DUSP10 (11751237_a_at) / RFU ID3 (11757404_x_at) / Fold change /veh ID3 (11757404_x_at) / RFU PLEKHG5 (11737974_s_at) / Fold change /veh PLEKHG5 (11737974_s_at) / RFU LRRC4B (11730491_at) / Fold change /veh LRRC4B (11730491_at) / RFU GIMAP4 (11747438_a_at) / Fold change /veh GIMAP4 (11747438_a_at) / RFU KRT8 (11758183_x_at) / Fold change /veh KRT8 (11758183_x_at) / RFU CNN1 (11734310_a_at) / Fold change /veh CNN1 (11734310_a_at) / RFU VPS37D (11726825_at) / Fold change /veh VPS37D (11726825_at) / RFU C10orf10 (11716522_x_at) / Fold change /veh C10orf10 (11716522_x_at) / RFU KIR2DL2 /// KIR2DL4 /// KIR2DL5A /// KIR2DL5B /// KIR2DS1 /// KIR2DS2 /// KIR2DS3 /// KIR2DS4 /// KIR3DL3 /// KIR3DL3 /// KIR3DS1 (11738374_at) / Fold change /veh KIR2DL2 /// KIR2DL4 /// KIR2DL5A /// KIR2DL5B /// KIR2DS1 /// KIR2DS2 /// KIR2DS3 /// KIR2DS4 /// KIR3DL3 /// KIR3DL3 /// KIR3DS1 (11738374_at) / RFU C1QL1 (11718748_at) / Fold change /veh C1QL1 (11718748_at) / RFU TMPRSS4 (11747572_a_at) / Fold change /veh TMPRSS4 (11747572_a_at) / RFU HAMP (11756126_x_at) / Fold change /veh HAMP (11756126_x_at) / RFU RNFT2 (11725882_a_at) / Fold change /veh RNFT2 (11725882_a_at) / RFU NR4A2 (11747474_a_at) / Fold change /veh NR4A2 (11747474_a_at) / RFU ABCC12 (11746883_a_at) / Fold change /veh ABCC12 (11746883_a_at) / RFU TMEM136 (11760407_x_at) / Fold change /veh TMEM136 (11760407_x_at) / RFU CLDN22 /// WWC2 (11732394_at) / Fold change /veh CLDN22 /// WWC2 (11732394_at) / RFU HLA-DPB1 (11760878_x_at) / Fold change /veh HLA-DPB1 (11760878_x_at) / RFU SPINT1 (11716480_a_at) / Fold change /veh SPINT1 (11716480_a_at) / RFU GAP43 (11754022_s_at) / Fold change /veh GAP43 (11754022_s_at) / RFU A4GNT (11735810_at) / Fold change /veh A4GNT (11735810_at) / RFU PRB3 (11715151_x_at) / Fold change /veh PRB3 (11715151_x_at) / RFU TUBB4B (11761932_at) / Fold change /veh TUBB4B (11761932_at) / RFU CAPN14 (11732068_a_at) / Fold change /veh CAPN14 (11732068_a_at) / RFU TMCC2 (11721928_a_at) / Fold change /veh TMCC2 (11721928_a_at) / RFU IRGQ (11745062_a_at) / Fold change /veh IRGQ (11745062_a_at) / RFU FAM174B (11720279_a_at) / Fold change /veh FAM174B (11720279_a_at) / RFU TMPRSS4 (11748680_a_at) / Fold change /veh TMPRSS4 (11748680_a_at) / RFU FAM212B (11763350_a_at) / Fold change /veh FAM212B (11763350_a_at) / RFU PLEKHG5 (11743358_a_at) / Fold change /veh PLEKHG5 (11743358_a_at) / RFU ZSCAN30 (11745921_a_at) / Fold change /veh ZSCAN30 (11745921_a_at) / RFU CMKLR1 (11741424_a_at) / Fold change /veh CMKLR1 (11741424_a_at) / RFU LOC101060620 /// MAPK8IP1 (11723275_at) / Fold change /veh LOC101060620 /// MAPK8IP1 (11723275_at) / RFU SPTSSB (11747773_x_at) / Fold change /veh SPTSSB (11747773_x_at) / RFU PRSS12 (11739890_at) / Fold change /veh PRSS12 (11739890_at) / RFU BIN1 (11741810_x_at) / Fold change /veh BIN1 (11741810_x_at) / RFU WNT11 (11732464_a_at) / Fold change /veh WNT11 (11732464_a_at) / RFU C10orf10 (11716521_a_at) / Fold change /veh C10orf10 (11716521_a_at) / RFU C5orf56 (11738089_at) / Fold change /veh C5orf56 (11738089_at) / RFU CYB561 (11721691_x_at) / Fold change /veh CYB561 (11721691_x_at) / RFU ANKRD19P (11752326_a_at) / Fold change /veh ANKRD19P (11752326_a_at) / RFU OR2T12 /// OR2T33 /// OR2T8 (11738714_s_at) / Fold change /veh OR2T12 /// OR2T33 /// OR2T8 (11738714_s_at) / RFU VCAN (11748164_a_at) / Fold change /veh VCAN (11748164_a_at) / RFU JSRP1 (11732532_at) / Fold change /veh JSRP1 (11732532_at) / RFU KRTAP10-11 (11738290_x_at) / Fold change /veh KRTAP10-11 (11738290_x_at) / RFU MYO3A (11730013_a_at) / Fold change /veh MYO3A (11730013_a_at) / RFU EBF3 (11725865_a_at) / Fold change /veh EBF3 (11725865_a_at) / RFU CAMK2N1 (11719241_x_at) / Fold change /veh CAMK2N1 (11719241_x_at) / RFU C5orf56 (11738088_a_at) / Fold change /veh C5orf56 (11738088_a_at) / RFU OLFML3 (11715873_a_at) / Fold change /veh OLFML3 (11715873_a_at) / RFU LOC100653217 /// NTM (11731650_a_at) / Fold change /veh LOC100653217 /// NTM (11731650_a_at) / RFU MAPK11 (11762145_a_at) / Fold change /veh MAPK11 (11762145_a_at) / RFU FIZ1 (11724087_x_at) / Fold change /veh FIZ1 (11724087_x_at) / RFU OASL (11726364_x_at) / Fold change /veh OASL (11726364_x_at) / RFU SOX15 (11748057_x_at) / Fold change /veh SOX15 (11748057_x_at) / RFU CD79A (11719716_a_at) / Fold change /veh CD79A (11719716_a_at) / RFU HIST1H1D (11736915_at) / Fold change /veh HIST1H1D (11736915_at) / RFU CASKIN2 (11723855_a_at) / Fold change /veh CASKIN2 (11723855_a_at) / RFU LOC730098 (11760151_x_at) / Fold change /veh LOC730098 (11760151_x_at) / RFU OR4N2 (11742367_at) / Fold change /veh OR4N2 (11742367_at) / RFU PRRT2 (11749266_a_at) / Fold change /veh PRRT2 (11749266_a_at) / RFU SNX32 (11753110_a_at) / Fold change /veh SNX32 (11753110_a_at) / RFU CDHR5 (11726645_a_at) / Fold change /veh CDHR5 (11726645_a_at) / RFU RCAN1 (11760418_a_at) / Fold change /veh RCAN1 (11760418_a_at) / RFU FAM167A (11723789_a_at) / Fold change /veh FAM167A (11723789_a_at) / RFU FAM26E (11764081_at) / Fold change /veh FAM26E (11764081_at) / RFU ISYNA1 (11749810_s_at) / Fold change /veh ISYNA1 (11749810_s_at) / RFU ACY1 (11761880_at) / Fold change /veh ACY1 (11761880_at) / RFU 11764098_at / Fold change /veh 11764098_at / RFU SAMD14 (11745864_x_at) / Fold change /veh SAMD14 (11745864_x_at) / RFU NPB (11741838_a_at) / Fold change /veh NPB (11741838_a_at) / RFU TMPRSS6 (11731388_a_at) / Fold change /veh TMPRSS6 (11731388_a_at) / RFU KRTAP10-2 (11738614_at) / Fold change /veh KRTAP10-2 (11738614_at) / RFU ARHGAP8 /// PRR5-ARHGAP8 (11727945_x_at) / Fold change /veh ARHGAP8 /// PRR5-ARHGAP8 (11727945_x_at) / RFU KRTAP5-7 /// NADSYN1 (11734609_at) / Fold change /veh KRTAP5-7 /// NADSYN1 (11734609_at) / RFU RASL12 (11751679_a_at) / Fold change /veh RASL12 (11751679_a_at) / RFU CDKN2B (11736163_a_at) / Fold change /veh CDKN2B (11736163_a_at) / RFU PRF1 (11729649_at) / Fold change /veh PRF1 (11729649_at) / RFU, ZNF638 /// ZNF638-IT1 / Fold change vs veh, ZNF638 /// ZNF638-IT1 / RFU, PANK3 / Fold change vs veh, PANK3 / RFU, SH3YL1 / Fold change vs veh, SH3YL1 / RFU, ZEB2 / Fold change vs veh, ZEB2 / RFU, NRIP1 / Fold change vs veh, NRIP1 / RFU, PTTG1IP / Fold change vs veh, PTTG1IP / RFU, CAPN2 / Fold change vs veh, CAPN2 / RFU, MED14 / Fold change vs veh, MED14 / RFU, SNORA58 / Fold change vs veh, SNORA58 / RFU, C1orf63 / Fold change vs veh, C1orf63 / RFU, LRRFIP1 / Fold change vs veh, LRRFIP1 / RFU, NDUFAF7 / Fold change vs veh, NDUFAF7 / RFU, SLC12A2 / Fold change vs veh, SLC12A2 / RFU, IBTK / Fold change vs veh, IBTK / RFU, ESF1 / Fold change vs veh, ESF1 / Fold change vs veh, TMEM50B / RFU, TAOK1 / Fold change vs veh, TAOK1 / RFU, ACBD3 / Fold change vs veh, ACBD3 / RFU, TMA16 / Fold change vs veh, TMA16 / RFU, RWDD3 / Fold change vs veh, RWDD3 / RFU, BCAT1 / Fold change vs veh, BCAT1 / RFU, EDEM3 / Fold change vs veh, EDEM3 / RFU, TMEM33 / Fold change vs veh, TMEM33 / RFU, WDR75 / Fold change vs veh, WDR75 / RFU, AHCTF1 / Fold change vs veh, AHCTF1 / RFU, TFRC / Fold change vs veh, TFRC / RFU, ZDHHC17 / Fold change vs veh, ZDHHC17 / RFU, NOM1 / Fold change vs veh, NOM1 / RFU, ARL8B / Fold change vs veh, ARL8B / RFU, ZBTB11 / Fold change vs veh, ZBTB11 / RFU, TAMM41 / Fold change vs veh, TAMM41 / RFU, KIAA1704 /// LOC100996395 / Fold change vs veh, KIAA1704 /// LOC100996395 / RFU, ING1 / Fold change vs veh, ING1 / RFU, TRMT61B / Fold change vs veh, TRMT61B / RFU, FUBP3 / Fold change vs veh, FUBP3 / RFU, TP53 / Fold change vs veh, TP53 / RFU, TNKS2 / Fold change vs veh, TNKS2 / RFU, ZFP14 / Fold change vs veh, ZFP14 / RFU, ACTR2 / Fold change vs veh, ACTR2 / RFU, PPP3R1 / Fold change vs veh, PPP3R1 / RFU, PIK3R1 / Fold change vs veh, PIK3R1 / RFU, HNRNPA1 / Fold change vs veh, HNRNPA1 / RFU, RNF170 / Fold change vs veh, RNF170 / RFU, ZNF28 / Fold change vs veh, ZNF28 / RFU, RNGTT / Fold change vs veh, RNGTT / RFU, OGT / Fold change vs veh, OGT / RFU, BRD1 / Fold change vs veh, BRD1 / RFU, MARS / Fold change vs veh, MARS / RFU, ZNF655 / Fold change vs veh, ZNF655 / RFU, FAHD1 / Fold change vs veh, FAHD1 / RFU, BDP1 / Fold change vs veh, BDP1 / RFU, LRRCC1 / Fold change vs veh, LRRCC1 / RFU, ARID1A / Fold change vs veh, ARID1A / RFU, ZNF146 / Fold change vs veh, ZNF146 / RFU, ZNF330 / Fold change vs veh, ZNF330 / RFU, GPN3 / Fold change vs veh, GPN3 / RFU, C9orf123 / Fold change vs veh, C9orf123 / RFU, N4BP2L2 / Fold change vs veh, N4BP2L2 / RFU, ARFIP1 / Fold change vs veh, ARFIP1 / RFU, FAM179B / Fold change vs veh, FAM179B / RFU, BCL10 / Fold change vs veh, BCL10 / RFU, UHRF1BP1L / Fold change vs veh, UHRF1BP1L / RFU, BET1 / Fold change vs veh, BET1 / RFU, CNOT2 / Fold change vs veh, CNOT2 / RFU, ZNF268 / Fold change vs veh, ZNF268 / Fold change vs veh, ZNF507 / RFU, DGCR2 / Fold change vs veh, DGCR2 / RFU, WDSUB1 / Fold change vs veh, WDSUB1 / Fold change vs veh, HSP90B1 /// MIR3652 / RFU, ADSS / Fold change vs veh, ADSS / RFU, GK / Fold change vs veh, GK / RFU, ZNF148 / Fold change vs veh, ZNF148 / RFU, TAF9 / Fold change vs veh, TAF9 / RFU, SLC1A5 / Fold change vs veh, SLC1A5 / RFU, SLMO2 / Fold change vs veh, SLMO2 / RFU, ABCC4 / Fold change vs veh, ABCC4 / RFU, LOC101060439 /// RAP1B / Fold change vs veh, LOC101060439 /// RAP1B / RFU, RFX7 / Fold change vs veh, RFX7 / RFU, GTPBP10 / Fold change vs veh, GTPBP10 / RFU, CNEP1R1 / Fold change vs veh, CNEP1R1 / RFU, BIVM-ERCC5 /// ERCC5 / Fold change vs veh, BIVM-ERCC5 /// ERCC5 / RFU, ILF3 / Fold change vs veh, ILF3 / RFU 11762660_at / Fold change /veh 11762660_at / RFU VCAN (11757783_s_at) / Fold change /veh VCAN (11757783_s_at) / RFU DDX43 (11728927_at) / Fold change /veh DDX43 (11728927_at) / RFU KRT8 (11758188_x_at) / Fold change /veh KRT8 (11758188_x_at) / RFU NKD1 (11759106_at) / Fold change /veh NKD1 (11759106_at) / RFU SRD5A1 (11742802_a_at) / Fold change /veh SRD5A1 (11742802_a_at) / RFU TPSAB1 /// TPSB2 (11721975_s_at) / Fold change /veh TPSAB1 /// TPSB2 (11721975_s_at) / RFU GSTM3 (11746129_a_at) / Fold change /veh GSTM3 (11746129_a_at) / RFU IL23R (11737362_x_at) / Fold change /veh IL23R (11737362_x_at) / RFU TMEM51 (11727254_a_at) / Fold change /veh TMEM51 (11727254_a_at) / RFU PIWIL2 (11732686_x_at) / Fold change /veh PIWIL2 (11732686_x_at) / RFU ORM1 (11744905_x_at) / Fold change /veh ORM1 (11744905_x_at) / RFU CCDC152 (11743942_at) / Fold change /veh CCDC152 (11743942_at) / RFU ECM1 (11717891_a_at) / Fold change /veh ECM1 (11717891_a_at) / RFU IL23R (11748794_a_at) / Fold change /veh IL23R (11748794_a_at) / RFU TNFAIP8L3 (11732012_x_at) / Fold change /veh TNFAIP8L3 (11732012_x_at) / RFU MBOAT4 (11741988_at) / Fold change /veh MBOAT4 (11741988_at) / RFU 11764193_at / Fold change /veh 11764193_at / RFU TMEM53 (11763286_at) / Fold change /veh TMEM53 (11763286_at) / RFU MAGEB2 (11727129_at) / Fold change /veh MAGEB2 (11727129_at) / RFU TMEM200A (11744735_a_at) / Fold change /veh TMEM200A (11744735_a_at) / RFU CCDC152 (11751479_a_at) / Fold change /veh CCDC152 (11751479_a_at) / RFU FAM211A (11726209_a_at) / Fold change /veh FAM211A (11726209_a_at) / RFU RGS16 (11746705_a_at) / Fold change /veh RGS16 (11746705_a_at) / RFU VCAN (11755009_s_at) / Fold change /veh VCAN (11755009_s_at) / RFU RHOB (11743442_s_at) / Fold change /veh RHOB (11743442_s_at) / RFU RGS16 (11720943_a_at) / Fold change /veh RGS16 (11720943_a_at) / RFU RGS16 (11720944_at) / Fold change /veh RGS16 (11720944_at) / RFU, VPS4B / Fold change vs veh, VPS4B / RFU, CREB1 / Fold change vs veh, CREB1 / RFU, DNAJC13 / Fold change vs veh, DNAJC13 / RFU, GNAQ / Fold change vs veh, GNAQ / RFU, CDK5R1 / Fold change vs veh, CDK5R1 / RFU, ZRANB3 / Fold change vs veh, ZRANB3 / RFU, CUL4A / Fold change vs veh, CUL4A / RFU, CCNY / Fold change vs veh, CCNY / RFU, UFL1 / Fold change vs veh, UFL1 / RFU, COG3 / Fold change vs veh, COG3 / RFU, DIAPH2 / Fold change vs veh, DIAPH2 / RFU, SKA2 / Fold change vs veh, SKA2 / RFU, AFF3 / Fold change vs veh, AFF3 / RFU, LMF1 / Fold change vs veh, LMF1 / RFU, IPO11 / Fold change vs veh, IPO11 / RFU, DFFB / Fold change vs veh, DFFB / RFU, FOXP1 / Fold change vs veh, FOXP1 / RFU, CARD8 / Fold change vs veh, CARD8 / RFU, STRN3 / Fold change vs veh, STRN3 / RFU, ADK / Fold change vs veh, ADK / RFU, RASSF2 / Fold change vs veh, RASSF2 / RFU, WIPF1 / Fold change vs veh, WIPF1 / RFU, LARP1B / Fold change vs veh, LARP1B / RFU, RASA1 / Fold change vs veh, RASA1 / RFU, RB1 / Fold change vs veh, RB1 / RFU, PPFIA1 / Fold change vs veh, PPFIA1 / RFU, MAT2A / Fold change vs veh, MAT2A / RFU, CCT5 / Fold change vs veh, CCT5 / RFU, WDR92 / Fold change vs veh, WDR92 / RFU, CUX1 / Fold change vs veh, CUX1 / RFU, TTC7A / Fold change vs veh, TTC7A / RFU, TMEM135 / Fold change vs veh, TMEM135 / RFU, DEPTOR / Fold change vs veh, DEPTOR / RFU, CPM / Fold change vs veh, CPM / RFU, DNAJB6 / Fold change vs veh, DNAJB6 / RFU, CACNA2D3 / Fold change vs veh, CACNA2D3 / RFU, DTX4 / Fold change vs veh, DTX4 / RFU, TFCP2 / Fold change vs veh, TFCP2 / RFU, GMCL1 /// GMCL1P1 / Fold change vs veh, GMCL1 /// GMCL1P1 / RFU, AEBP2 / Fold change vs veh, AEBP2 / RFU, SNHG1 /// SNORD22 /// SNORD25 /// SNORD26 /// SNORD27 /// SNORD28 /// SNORD29 /// SNORD31 / Fold change vs veh, SNHG1 /// SNORD22 /// SNORD25 /// SNORD26 /// SNORD27 /// SNORD28 /// SNORD29 /// SNORD31 / Fold change (Aza/veh), C12orf56 (ProbeSet 11735607_a_at) / Fold change (ACY-1035/veh), C12orf56 (ProbeSet 11735607_a_at) / Fold change (Aza/veh), FGFR1OP (ProbeSet 11751329_s_at) / Fold change (ACY-1035/veh), FGFR1OP (ProbeSet 11751329_s_at) / Fold change (Aza/veh), VPS36 (ProbeSet 11739960_a_at) / Fold change (ACY-1035/veh), VPS36 (ProbeSet 11739960_a_at) / RFU SYPL1 (11715823_x_at) / Fold change /veh SYPL1 (11715823_x_at) / RFU IGFBP7 (11715501_s_at) / Fold change /veh IGFBP7 (11715501_s_at) / RFU REEP3 (11722064_at) / Fold change /veh REEP3 (11722064_at) / RFU IGLL1 (11728026_x_at) / Fold change /veh IGLL1 (11728026_x_at): dose or concentration left out as unconfirmed
Conditions: MV-4-11 cells, 48 hours

Nc1ncn([C@@H]2O[C@H](CO)[C@@H](O)[C@H]2O)c(=O)n1 [azacitidine]
Fold change /veh C10orf10 (11716522_x_at): 1.15
